In ChEMBL document CHEMBL2169761, “Exploring the interactions of unsaturated glucuronides with influenza virus sialidase” (J Med Chem, 2012):

How the values were obtained:
[1] = Inhibition of Influenza A virus sialidase N2
[2] = Inhibition of Influenza A virus sialidase N2 by fluorometric assay

| Compound | IC50 [1] [nM] | IC50 [2] [nM] | Ki [1] [nM] |
| --- | --- | --- | --- |
| CCC(CC)O[C@@H]1OC(C(=O)O)=C[C@H](N)[C@H]1NC(C)=O | 770 | – | – |
| CCC(CC)O[C@@H]1C=C(C(=O)O)C[C@H](O)[C@H]1NC(C)=O | 15 | – | – |
| CCC(CC)O[C@@H]1OC(C(=O)O)=C[C@H](OC(C)=O)[C@H]1NC(C)=O | – | 5390 | – |
| C=CCO[C@H]1C=C(C(=O)O)O[C@@H](OC(CC)CC)[C@@H]1NC(C)=O | – | 212000 | – |
| CCC(CC)O[C@@H]1OC(C(=O)O)=C[C@H](OC)[C@H]1NC(C)=O | – | 1450 | – |
| CCO[C@H]1C=C(C(=O)O)O[C@@H](OC(CC)CC)[C@@H]1NC(C)=O | – | 28000 | – |
| CCC(CC)O[C@@H]1OC(C(=O)O)=C[C@H](O)[C@H]1NC(C)=O | – | 320 | – |
| CCO[C@H]1C=C(C(=O)O)O[C@@H]([C@H](O)[C@H](O)CO)[C@@H]1NC(C)=O | – | 479000 | – |
| C=C[C@H]1CC(C(=O)O)=C[C@@H](OC(C)C)[C@@H]1NC(C)=O | – | – | 45 |
| C/C=C\[C@@H]1C[C@H](C(=O)O)N[C@H]1[C@@H](NC(C)=O)[C@](C)(CCC)OC | – | – | 0.2 |
| CC(=O)N[C@H]1[C@H]([C@H](O)[C@H](O)CO)OC(C(=O)O)=C[C@@H]1N | – | 680 | – |
| CC(=O)N[C@H]1[C@H]([C@H](O)[C@H](O)CO)OC(C(=O)O)=C[C@@H]1O [NEU5AC2EN] | 1700 | 10500 | – |
| CC(=O)N[C@H]1[C@H]([C@H](O)[C@H](O)CO)OC(C(=O)O)=C[C@@H]1NC(=N)N [ZANAMIVIR] | 5 | 12 | – |
